Laboratory results published in paper PMC3878228 (BMC Plant Biology, 2013).
“Also recorded” adds a separate entry of the source.

Key:
[1] = tested on: primary roots / root meristems (RMs) of Ler seedlings; assay: In vitro root assay in Ler seedlings; format: in vivo, Arabidopsis; settings: for Concentration at which the peptide was active in the root assay (primary root length): Ler seedlings, 8-d inoculation, tested at 10 nM, 30 nM, 100 nM, 1 μM
Experimental: (§1) Similarly, in vitro root assays were performed in Ler and clv2-1 (in Ler background) seedlings.
To evaluate activities of above-mentioned synthetic peptides with various N-terminal extensions, we performed in vitro root assays using Ler seedlings. The lengths of primary roots were measured after 8-d inoculations with either CLV3p12, L-CLV3p13, EEL-CLV3p15, HEEL-CLV3p16 or LHEEL-CLV3p17 at concentrations of 10 nM, 30 nM, 100 nM, or 1 μM (Figure 4).
(§2) Seeds of clv1-1, clv2-1 and clv3-2 (all in Ler background), Col-0 and Ler were gas-sterilized as reported previously, and imbibed in sterilized distilled water at 4°C in dark for 2 days before plating. In vitro root and SAM assays were performed as described.

CLV1 = settings: tobacco BY-2 cells; cited from earlier work
Source text: (§3) CLV3 is one of the well-studied peptide hormones in plants. The CLV3 gene encodes a 96-AA secretory protein that functions in a feedback regulation loop to restrict the number of stem cells in SAMs by repressing the expression of the WUSCHEL (WUS) transcription factor [16, 21]. […] CLV3 sh ...

[2] = tested on: shoot and root meristems (RMs); settings: synthetic peptides corresponding to the CLE motif; cited from earlier work
Source text: as §3

[3] = 200 μL medium with five pre-germinated Arabidopsis (Ler) seedlings; settings: 22°C
[4] = 200 μL liquid medium with five pre-germinated Ler seedlings (half-strength Murashige and Skoog, 1% sucrose, MES); settings: Arabidopsis thaliana (Ler), 22°C, up to 48 hrs
[5] = tested on: shoot apical meristems (SAMs) of clv3-2 seedlings; assay: In vitro SAM assay in clv3-2 seedlings; format: in vivo, Arabidopsis; settings: for Sizes of SAMs of clv3-2 seedlings after treatment: 1 μM fusion protein, 8 days, 8-d-old clv3-2 seedlings, n = 8, P < 0.01 Student's t-test
Experimental: (§4) In vitro activity assays of the TH-ProCLV3 fusion protein in SAMs were performed using clv3-2 and clv1-1 (both in Ler background) mutants of Arabidopsis, as described previously.
as §2

[6] = tested on: shoot apical meristems (SAMs) of clv1-1 seedlings; assay: In vitro SAM assay in clv1-1 seedlings; format: in vivo, Arabidopsis; settings: 1 μM fusion protein, 8-d-old clv1-1 seedlings, n = 8
Experimental: as §4
The commonly known subtilase recognition site is Lys/Arg-Arg. Although in most CLE members of Arabidopsis the residue located before the conserved Arg of the 12-AA CLE motif is Lys (Additional file 3), for CLV3 the residue is Leu. We examined if a Leu69Lys substitution hampered the activity of the fusion protein. TH-ProCLV3Leu69Lys was produced in E. coli and applied to clv3-2 seedlings in vitro.
as §2

[7] = tested on: roots / root meristems (RMs) of clv2-1 seedlings; assay: In vitro root assay in clv2-1 seedlings; format: in vivo, Arabidopsis; settings: 1 μM TH-ProCLV3, 8-d-old clv2-1 seedlings, n = 8
Experimental: as §1, §2

WUS expression = assay: qRT-PCR of WUS expression in shoot apices of clv3-2 seedlings; format: in vivo, Arabidopsis; settings: 8-d-old clv3-2 seedlings, 1 μM fusion protein in liquid medium, normalised to EIF4A1, 3 independent biological repeats
Experimental: To address if these fusion proteins are able to repress the WUS expression in SAMs, qRT-PCR analyses were performed with cDNAs from shoot apices after treatments with various fusion proteins. […] In contrast, the expression level of WUS in the TH-ProCLV3Leu69Ala-treated clv3-2 seedlings was only about 50% of the untreated ones (Figure 5F).
Total RNA was extracted using a Plant Total RNA Isolation Kit (TIANGEN, Beijing, China) from approximately 30 shoot apices excised from 8-d-old seedlings cultured in fusion protein-containing liquid media, and then reverse transcribed to cDNA with the First Strand cDNA Synthesis Kit ReverTra Ace-α (TOYOBO, Japan). qRT–PCR was performed in a Rotor-Gene 3000 thermocycler (Corbett, Australia) with the SYBR Premix ExTaq II kit (TaKaRa, Dalian, China), and the relative expression levels of the WUS [GenBank: NM_127349.3] were normalized against the internal control EIF4A1 [GenBank: NM_001084679.1] and calculated using the Rotor-Gene 6 software v 6.0 (Corbett, Australia) according to the 2^-∆∆CT method. Primer pairs of 5’-[…]-3’ and 5’-[…] -3’, and 5’-TTCTCTGCGACAATGCCTC-3’ and 5’-GCTTCCAGTCTTCTTTC TCCAC-3’ were used to amplify WUS and EIF4A1, respectively.

RTVPSGPDPLHH [CLV3p12, chemically synthesized 12-AA CLV3 peptide corresponding to the CLE motif]
Concentration at which the peptide was active in the root assay (primary root length) ([1]; n = 8): 10 nM | Interaction with CLV1 (CLV1): Direct interaction | Function in promoting stem cell differentiation in vitro [2]: functional in promoting stem cell differentiation in both shoot and root meristems

LRTVPSGPDPLHH
cleaved bond ([3]; up to 3 d): L69-R70; also recorded: R70-T71; also recorded: H-H81

Trx-His-HAHVQGLSNRKMMMMMKMESEWVGANGEAEKAKTKGLGLHEEARTVPSGPDPLHHHVNPPRQPRNNFQLP
fragment found [4]: CLV3p12 (RTVPSGPDPLHH); also recorded: CLV3p13 (RTVPSGPDPLHHH)

RTVPSGPDPLHH
cleaved bond ([3]; up to 3 d): R70-T71; also recorded: H-H81

LHEELRTVPSGPDPLHH
cleaved bond ([3]; up to 3 d): Leu69-Arg70, 3 d; also recorded: Arg70-Thr71, 3 d; also recorded: H-H81, first_seen, 2 d

HEELRTVPSGPDPLHH
cleaved bond ([3]; up to 3 d): Arg70-Thr71

Trx-His-HAHVQGLSNRKMMMMKMESEWVGANGEAEKAKTKGLGLHEELRTVPSGPDPLHHHVNPPRQPRNNFQLP
cleaved bond ([3]; up to 48 hrs): K38-Met39, major

Trx-His-HAHVQGLSNRKMMMMMKMESEWVGANGEAEKAKTKGLGLHEELRTVPSGPDPLHHHVNPPRQPRNNFQLP
fragment found [4]: RTVPSGPDPLHH (CLV3p12); also recorded: RTVPSGPDPLHHH (CLV3p13)

EELRTVPSGPDPLHH [EEL-CLV3p15, CLV3p12 with additional 3 N-terminal residues]
Concentration at which the peptide was active in the root assay (primary root length) ([1]; n = 8): 100 nM

EELRTVPSGPDPLHH
cleaved bond ([3]; up to 3 d): H-H81

MRLSPGGPDPRHH [M-CLE1p13, synthesized CLE1 peptide with 1 N-terminal flanking residue]
Fold less active than CLE1p12 in restricting the sizes of SAMs ([5]; clv3-2 seedlings, 8-d incubation, 10 nM to 10 μM peptide, n = 16): about 100 fold

RLSPGGPDPRHH
fragment found ([3]; up to 3 d): RLSPGGPDPRH; also recorded: RLSPGGPDPR; also recorded: LSPGGPDPRHH; also recorded: SPGGPDPRHH; also recorded: SPGGPDPR

LHEEARTVPSGPDPLHH
cleaved bond ([3]; up to 3 d): H-H81

FNESMRLSPGGPDPRHH
cleaved bond ([3]; up to 3 d): Met-Arg, 3 d | fragment found ([3]; up to 3 d): FNESMRLSPGGPDPRH; also recorded: FNESMRLSPGGPDPR; also recorded: FNESMRLSPGGPDP; also recorded: SMRLSPGGPDPR; also recorded: RLSPGGPDPR; also recorded: LSPGGPDPRHH; also recorded: SPGGPDPRHH; also recorded: SPGGPDPR

LHEELRTVPSGPDPLHH [LHEEL-CLV3p17, CLV3p12 with additional 5 N-terminal residues]
Concentration at which the peptide was active in the root assay (primary root length) ([1]; n = 8): 10 nM

Trx-His-HAHVQGLSNRKMMMMMKMESEWVGANGEAEKAKTKGLGLHEEKRTVPSGPDPLHHHVNPPRQPRNNFQLP
fragment found [4]: MMMMKMESEWVGANGEAEKAKTKGLGLHEEK

B1: TH-ProCLV3: CLV3 proprotein without signal peptide, N-terminal Trx and His tags, produced in E. coli, 23.8 kD (protein, UniProt Q9XF04 22-96, looked up)
pro-form: SDLTQAHAHVQGLSNRKMMMMKMESEWVGANGEAEKAKTKGLGLHEELRTVPSGPDPLHHHVNPPRQPRNNFQLP
modifications: pro-form N-terminal thioredoxin and His tags
notes: CLV3 proprotein without signal peptide, N-terminal Trx and His tags, produced in E. coli, 23.8 kD
Sizes of SAMs of clv3-2 seedlings after treatment [5]: significant reduced sizes of SAMs | Sizes of SAMs of clv1-1 seedlings after treatment [6]: no evident reduction; also recorded: no significant differences | Root growth of Ler seedlings ([1]; 1 μM TH-ProCLV3, 8-d-old Ler seedlings, n = 8): inhibited greatly | Root meristem (RM) state in Ler, microscopic examination ([1]; 1 μM TH-ProCLV3, Ler seedlings): termination of RMs in Ler | Root growth of clv2-1 seedlings [7]: no evident growth inhibition | Expression level of WUS in shoot apices relative to non-treated clv3-2 seedlings (WUS expression): about 10%

B2: TH-ProCLV3Leu69Lys: TH-ProCLV3 fusion protein with Leu69Lys substitution, produced in E. coli (protein, UniProt Q9XF04 22-96, looked up, variant L69K)
pro-form: SDLTQAHAHVQGLSNRKMMMMKMESEWVGANGEAEKAKTKGLGLHEEKRTVPSGPDPLHHHVNPPRQPRNNFQLP
modifications: pro-form N-terminal thioredoxin and His tags
notes: TH-ProCLV3 fusion protein with Leu69Lys substitution, produced in E. coli
Sizes of SAMs of clv3-2 seedlings after treatment [5]: no significant difference | Sizes of SAMs of clv1-1 seedlings after treatment [6]: no significant differences

B3: TH-ProCLV3Leu69Ala: TH-ProCLV3 fusion protein with Leu69Ala substitution, produced in E. coli (protein, UniProt Q9XF04 22-96, looked up, variant L69A)
pro-form: SDLTQAHAHVQGLSNRKMMMMKMESEWVGANGEAEKAKTKGLGLHEEARTVPSGPDPLHHHVNPPRQPRNNFQLP
modifications: pro-form N-terminal thioredoxin and His tags
notes: TH-ProCLV3 fusion protein with Leu69Ala substitution, produced in E. coli
Sizes of SAMs of clv3-2 seedlings after treatment [5]: significantly larger than those treated with TH-ProCLV3 | Sizes of SAMs of clv1-1 seedlings after treatment [6]: no significant differences | Expression level of WUS in shoot apices relative to non-treated clv3-2 seedlings (WUS expression): about 50%
